According to EP1984014B1, “USE OF TPO PEPTIDE COMPOUNDS AND PHARMACEUTICAL COMPOSITIONS IN THE TREATMENT OF ANEMIA” (Janssen Pharmaceutica NV, priority 2006, dated 2007):
pEC50: −log10 of the molar value.

Legend:
[1] = tested on: mice treated with carboplatin; test: Example 3: dosing 1 hour, 1 day or 4 days after carboplatin, anemia in mice; format: in vivo, BALB/c mouse
Protocol: (§1) The effects of PEGylated TPO Compound No. 1 on mice treated with carboplatin were observed. For all examples herein, a 10 mg/ml stock solution of PEGylated TPO Compound No. 1 was prepared in sterile saline. For mixing, the preparation was placed on a gyratory shaker for 15min. at 200 rpm. This method was used to dissolve PEGylated TPO Compound No. 1 without foaming. The stock was filtered using a GV Millex (0.22um) filter. Dosing solutions were then prepared from this stock using sterile saline. The stock and dosing solutions were prepared fresh on the day of use.
The effect of PEGylated TPO Compound No. 1 on the duration and severity of anemia following dosing regimens in which PEGylated TPO Compound No. 1 is administered at various times following the carboplatin treatment was observed. For this study, an amount of PEGylated TPO Compound No. 1 was administered to mice, one (1) hour, one (1) day or four (4) days following a carboplatin dose.
The groups of mice were treated with either carboplatin or vehicle (Phosphate Buffered Saline, PBS) by ip administration on Days -1 and 0 as delineated below. The optimal dose of carboplatin used to induce thrombocytopenia in the BALB/c mouse strain was previously determined to be a fractionated total dose of 120mg/kg given as two consecutive daily injections (i.e., 2x60mg/kg). One hour (Day 0), one day (Day 1) or four days (Day 4) following the second dose of carboplatin, groups of mice were treated with PEGylated TPO Compound No. 1 (300ug/kg) or vehicle (sterile saline, SS, preservative-free 0.9% sodium chloride) by IV (bolus) injection as delineated in Table 3. The dose was administered on a per-weight basis (100ul/10g body weight).
(§2) On Days 6, 8, 10 & 12, five mice in each test group were weighed and then euthanised using CO2-asphyxiation and exsanguinations via cardiac puncture. The blood samples were transferred to separate EDTA (lavender-top) microcontainers for hematological evaluation. Groups of control mice (5) were processed on Days 6 & 12. The data are presented graphically as group means + SEM.

[2] = tested on: mice treated with carboplatin; test: Example 1: dose response of PEGylated TPO Compound No. 1 given one day after carboplatin, anemia in mice; format: in vivo, BALB/c mouse
Protocol: as §1
The effect of PEGylated TPO Compound No. 1 on the duration and severity of anemia following treatment of mice with carboplatin as determined by changes in hemoglobin levels, red blood cell count and hematocrit, was observed. For this study, increasing amounts of PEGylated TPO Compound No. 1 were administered to mice one day following a carboplatin dose to characterize a possible dose-dependent effect on various red blood cell parameters.
The groups of mice were treated with either carboplatin or vehicle (Phosphate Buffered Saline, PBS) by intraperitoneal administration on Days -2 and -1 as delineated below. The optimal dose of carboplatin used to induce thrombocytopenia in the BALB/c mouse strain was previously determined to be a fractionated total dose of 120mg/kg given as two consecutive daily injections (i.e., 2x60mg/kg). One day following the second dose of carboplatin, groups of mice were treated with PEGylated TPO Compound No. 1 or vehicle (sterile saline, SS, preservative-free 0.9% sodium chloride) by IV (bolus) injection as delineated in Table 1. The dose was administered on a per-weight basis (100ul/10g body weight).
as §2, with “5, 7, 9 and 11,” for “6, 8, 10 & 12,”, “hematologic” for “hematological”, “5 and 11.” for “6 & 12.”, “+SEM.” for “+ SEM.”

[3] = biological target: T1, human TPO receptor, c-mpl (hTPOr) (Homo sapiens, UniProt P40238); test: Example 7: Baf/3 hTPOr fos/lux luciferase reporter assay (relative luminescent units); format: cell-based
T1 construct: expressed in transfected cells
T1 sequence (P40238 26-635): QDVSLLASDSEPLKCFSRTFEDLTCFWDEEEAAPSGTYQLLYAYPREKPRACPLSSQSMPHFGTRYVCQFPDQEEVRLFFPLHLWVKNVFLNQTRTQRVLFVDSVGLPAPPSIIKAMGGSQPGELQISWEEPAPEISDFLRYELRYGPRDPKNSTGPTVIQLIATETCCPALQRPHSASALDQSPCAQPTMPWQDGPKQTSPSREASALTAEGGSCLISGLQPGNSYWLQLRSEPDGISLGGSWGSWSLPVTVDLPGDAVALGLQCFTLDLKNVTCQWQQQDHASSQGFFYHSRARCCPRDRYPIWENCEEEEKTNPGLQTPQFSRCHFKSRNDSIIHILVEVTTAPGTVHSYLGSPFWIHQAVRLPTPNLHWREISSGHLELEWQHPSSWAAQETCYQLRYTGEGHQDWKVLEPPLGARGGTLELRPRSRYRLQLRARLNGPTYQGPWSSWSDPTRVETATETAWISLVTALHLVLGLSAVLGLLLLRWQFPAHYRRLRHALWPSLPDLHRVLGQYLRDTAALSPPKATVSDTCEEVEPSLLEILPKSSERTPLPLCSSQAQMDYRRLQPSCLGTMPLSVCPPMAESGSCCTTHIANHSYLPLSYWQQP
Text: The activity of the peptide compounds can be determined using standard relative luminescent units assay techniques. The assay employs, e.g., murine cells engineered to stably express the human TPO receptor and a luciferase reporter construct driven by the fos promoter. The assay may be performed as follows: Serum deprived Baf/3 hTPOr fos/lux cells expressing the human TPO receptor, c-mpl (hTPOr), and a luciferase reporter construct are exposed to increasing concentrations of either rhTPO or peptide compound for approximately 18 hours. Cells are then incubated in a medium containing a luciferase substrate and the luminescence of the cells is measured using a luminometer.

Methoxypolyethyleneglycol20000-propionyl-L-Isoleucyl-L-Glutamyl-Glycyl-L-Prolyl-L-Threonyl-L-Leucyl-L-Arginyl-L-Glutaminyl-L-2-Naphthylalanyl-L-Leucyl-L-Alanyl-L-Alanyl-L-Arginyl-Sarcosyl-Ne-(methoxypolyethyleneglycol20000-propionyl-L-Isoleucyl-L-Glutamyl-Glycyl-L-Prolyl-L-Threonyl-L-Leucyl-L-Arginyl-L-Glutaminyl-L-2-Naphthylalanyl-L-Leucyl-L-Alanyl-L-Alanyl-L-Arginyl-Sarcosyl-)-Lysinamide [PEGylated TPO Compound No. 1]
time of dosing after chemotherapy at which prevention of carboplatin-induced anemia is observed ([1]; 300ug/kg iv): ≤ 24 h | decreases in hemoglobin levels, RBC counts and hematocrits caused by carboplatin ([1]; 300ug/kg iv on Day 0 (1 hour after carboplatin treatment)): prevented | decreases in hemoglobin levels, RBC counts and hematocrits caused by carboplatin ([1]; 300ug/kg iv on Day 1): prevented | carboplatin-induced changes in erythrocyte parameters ([1]; 300ug/kg iv on Day 4): failed to affect | onset, frequency or severity of signs (hunched, flaccid) ([1]; 300ug/kg iv, no detailed analysis): did not appear to have a dramatic effect | weight loss associated with carboplatin treatment ([1]; administration on Day 0, Day 1 or Day 4, no statistical analysis): did not appear to affect the weight loss | recovery of the lost body weight ([2]; all doses tested, 11-Day study period): enhanced the recovery of the lost body weight | altered appearance and behavior (hunched, flaccid, soiled anogenital areas) ([2]; appeared to be dose-dependent): decreased the onset, frequency and severity of these signs | decrease in hemoglobin levels caused by carboplatin ([2]; carboplatin 2x60mg/kg ip Days -2 & -1, all doses (300, 1000, 3000ug/kg iv Day 0), by Day 11): inhibited | decreases in RBC count and hematocrit associated with carboplatin treatment ([2]; carboplatin 2x60mg/kg ip, 300-3000ug/kg iv Day 0, no statistical evaluation): inhibited | pEC50 ([3]; Baf/3 cells recombinantly expressing human TPO-R, approximately 18 hours): ~11.30 | activation of TPO-R compared with TPO ([3]; at the same concentration as TPO): stronger activation | activation of Baf/3 cells recombinantly expressing human TPO-R ([3]; increasing concentrations): dose dependent
